Measured values published in ChEMBL document CHEMBL4251613, “Synthesis and biological evaluation of diarylheptanoids as potential antioxidant and anti-inflammatory agents” (Eur J Med Chem, 2018).
Calls of active or inactive are those of the source. The calls are words filed in the database; no cut-off is given here.

What was measured:
[1] = system: RAW264.7; experiment: Cytotoxicity against mouse RAW264.7 cells assessed as reduction in cell viability at 30 uM after 18 hrs by MTT assay; assay type: cell-based; details: raw264.7, 18 h
[2] = system: RAW264.7; experiment: Anti-inflammatory activity in mouse RAW264.7 cells assessed as inhibition of LPS-induced ROS production at 30 uM measured after 4 hrs by H2DCFDA-AM probe based fluorescence assay; assay type: functional, cell-based
[3] = system: RAW264.7; experiment: Anti-inflammatory activity in mouse RAW264.7 cells assessed as inhibition of LPS-induced ROS production measured after 4 hrs by H2DCFDA-AM probe based fluorescence assay; assay type: functional, cell-based; details: for IC50: RAW264.7, 4 h
[4] = system: RAW264.7; experiment: Cytotoxicity against mouse RAW264.7 cells assessed as reduction in cell viability up to 30 uM after 18 hrs by MTT assay; assay type: cell-based; details: raw264.7, 18 h
[5] = system: RAW264.7; experiment: Cytotoxicity against mouse RAW264.7 cells assessed as reduction in cell viability at 30 to 50 uM after 18 hrs by MTT assay; assay type: cell-based; details: raw264.7, 18 h
[6] = system: RAW264.7; experiment: Anti-inflammatory activity in mouse RAW264.7 cells assessed as inhibition of LPS-induced NO production at 30 uM preincubated for 30 mins followed by LPS stimulation measured after 4 hrs by Griess assay relative to control; assay type: functional
[7] = system: RAW264.7; experiment: Anti-inflammatory activity in mouse RAW264.7 cells assessed as inhibition of LPS-induced IL-1beta mRNA level at 30 uM preincubated for 30 mins followed by LPS stimulation measured after 4 hrs by RT-PCR method relative to control; assay type: functional
[8] = system: RAW264.7; experiment: Anti-inflammatory activity in mouse RAW264.7 cells assessed as inhibition of LPS-induced IL-6 mRNA level at 30 uM preincubated for 30 mins followed by LPS stimulation measured after 4 hrs by RT-PCR method relative to control; assay type: functional
[9] = Cytotoxicity against mouse RAW264.7 cells assessed as cell viability at 30 uM after 18 hrs by MTT assay relative to control; assay type: cell-based; details: read-out: Activity
[10] = system: RAW264.7; experiment: Cytotoxicity against mouse RAW264.7 cells assessed as reduction in cell viability after 18 hrs by MTT assay; assay type: cell-based; details: raw264.7, 18 h
[11] = system: RAW264.7; experiment: Cytotoxicity against mouse RAW264.7 cells assessed as reduction in cell viability at 30 uM after 1 hr by MTT assay; assay type: cell-based; details: raw264.7, 1 h
[12] = system: RAW264.7; experiment: Anti-inflammatory activity in mouse RAW264.7 cells assessed as inhibition of LPS-induced ROS production at 1 to 10 uM measured after 4 hrs by H2DCFDA-AM probe based fluorescence assay; assay type: functional, cell-based

Compound | Activity [1] | inhibition [2] | IC50 [3] | Activity [4] | Activity [5] | inhibition at 30 µM [6] | inhibition at 30 µM [7] | inhibition at 30 µM [8] | also measured
N[C@H]1Cc2ccc(cc2)Oc2cc(ccc2O)CCCNC1=O | Non-Toxic | inactive | – | – | – | – | – | – | –
COc1ccc2cc1Oc1ccc(cc1)CCc1cn(nn1)CC2 | Non-Toxic | – | – | – | – | – | – | – | –
COc1ccc(CCCNC(=O)CCc2ccc(O)cc2)cc1Br | Non-Toxic | Active | 30 to 50 µM | Non-Toxic | Toxic | > 80% | 30 to 50% | > 60% | –
COc1ccc(CCCNC(=O)[C@@H](N)Cc2ccc(O)cc2)cc1Br | Non-Toxic | Active | 30 µM | Non-Toxic | Non-Toxic | > 80% | 30 to 50% | > 60% | –
O=C1CCc2ccc(cc2)Oc2cc(ccc2O)CCCN1 | Non-Toxic | Active | 30 to 50 µM | Non-Toxic | Non-Toxic | 65% | 30 to 50% | > 60% | –
COc1ccc2cc1Oc1ccc(cc1)CC/C=C\C(O)CC2 (centres undefined) | Non-Toxic | – | – | – | – | – | – | – | –
COc1ccc(CCn2cc(CCc3ccc(O)cc3)nn2)cc1Br | Non-Toxic | – | – | – | – | – | – | – | –
COc1ccc2cc1Oc1ccc(cc1)C[C@H](N)C(=O)NCCC2 | Non-Toxic | Active | 30 µM | Non-Toxic | Non-Toxic | > 80% | 30 to 50% | > 60% | –
Oc1ccc2cc1Oc1ccc(cc1)CC/C=C\C=C\C2 | – | Active | 30 µM | – | – | > 65% | – | – | viability at 18 h, 30 µM [9]: < 60%; Activity [10]: Dose-dependent effect; Activity [11]: Non-Toxic; inhibition [12]: inactive; inhibition [7]: Active; inhibition [8]: Active
COc1ccc2cc1Oc1ccc(cc1)CCC(=O)NCCC2 | Non-Toxic | – | – | – | – | – | – | – | –
Oc1ccc2cc1Oc1ccc(cc1)CC/C=C\C(O)CC2 (centres undefined) | Non-Toxic | Active | 30 to 50 µM | Non-Toxic | Toxic | > 80% | 30 to 50% | > 60% | –
Cc1c(C)c2c(c(C)c1O)CCC(C)(C(=O)O)O2 (centres undefined) [TROLOX] | Non-Toxic | – | 30 µM | – | – | – | – | – | inhibition [3]: Dose-dependent effect
Oc1ccc2cc1Oc1ccc(cc1)CCc1cn(nn1)CC2 | Non-Toxic | – | – | – | – | – | – | – | –
COc1ccc(CCC(O)/C=C\CCc2ccc(O)cc2)cc1Br (centres undefined) | Toxic | Active | – | – | – | – | – | – | Activity [11]: Non-Toxic
O=C1N[C@H]2Cc3ccc(cc3)Oc3cc(ccc3O)CCCN1C2=O | Non-Toxic | – | – | – | – | – | – | – | –
COc1ccc2cc1Oc1ccc(cc1)C[C@@H]1NC(=O)N(CCC2)C1=O | Non-Toxic | – | – | – | – | – | – | – | –
